Read-outs that look alike come from different tables or passages of the source.
How the values were obtained:
sweetpotato plants = settings: 50 μM in culture medium
[1] = molecular target: CSR3 (RNase III of SPCSV) (Sweet potato chlorotic stunt virus, UniProt Q8JJW8); assay: Kinetic-based FRET dose-response assay (IC50, DSS); format: biochemical; design: DSS / DSS Comm 1 / DSS FIMM1 / DSS FIMM 2: scale not given here; settings: for DSS Comm 1 / DSS FIMM1 / DSS FIMM 2: drug sensitivity score; for DSS Comm 1: repeat Comm 1; for DSS FIMM1: repeat FIMM 1; for DSS FIMM 2: repeat FIMM 2
Procedure: A dose-response assay with six concentrations (1.25 nM to 50 μM) was carried out in three independent experiments, which included two tests with the 112 selected FIMM compounds (i.e., compounds prepared by the HTB-FIMM) and one test using the newly ordered commercial compounds (99 of the 112 compounds, i.e., compounds prepared by a second supplier). A dose-response curve was generated for each compound based on PI values as a function of the concentration.
The HTS assay was designed based on FRET using a 22-bp siRNA (forward sequence, […]; reverse sequence, […]) with a 2-nucleotide (nt) 3′ overhang labeled with the fluorescent dye 6-carboxyfluorescein (FAM) and a black hole quencher (BHQ1) on the sense strand (Metabion, Munich, Germany). Screening was initially carried out at one concentration (10 μM) in a 20-μl reaction buffer. […] All reaction mixtures contained 50 nM CSR3 and 375 nM labeled siRNA in 384-well black flat-bottom microplates (Corning, NY, USA) and were prepared using a BioTek MultiFlo FX dispenser with single-channel random access dispenser cassettes (BioTek, Winooski, VT, USA). The plates were read with a PHERAstar FS reader (BMG Labtech, Ortenberg, Germany).
(§1) For HTS, the activity of CSR3 was calculated by measuring the change in fluorescence as a function of the reaction time using MARS Data Analysis software (BMG Labtech). To evaluate the CSR3 inhibition efficiency of individual compounds, the PI of each compound was calculated using the slope values for the sample, positive control, and negative control according to the following equation: PI = 100 × [1 − (sample − positive)/(negative − positive)]%. IC50 and DSS values were calculated using concentration-specific PI values according to a previous study ([31]). Relative gene expression was calculated using the classical 2^−ΔΔ^CT method ([63]).

SPFMV [2] = assay: Virus accumulation (RT-qPCR of coat protein RNA) in coinfected sweetpotato plants grown in culture medium: SPFMV; format: in vivo, Sweet potato feathery mottle virus; settings: for SPFMV_FC (fold change of viral accumulation): 50 μM in culture medium, 28 days, relative to DMSO control
Procedure: (§2) Since tests in culture medium consume smaller amounts of compounds and can be carried out under relatively controlled conditions, sweetpotato plants coinfected with SPCSV and SPFMV were grown in medium supplemented with one of the 30 inhibitor candidates at a concentration of 50 μM. Their effects on plant growth were monitored by imaging the plants once a week. […] In addition, virus accumulation was quantified by measuring the relative abundance of the transcripts encoding viral coat proteins using RT-qPCR ([32]). The effect of individual compounds on virus accumulation was estimated by comparing treated and control plants.
(§3) Sweetpotato plants cultivar 'Huachano' (accession CIP420065) were side-graft inoculated with both SPFMV (East African strain isolate Nam1) and SPCSV-Ug (East African serotype 2) as described previously ([62]). Plantlets were propagated by taking single-node stems grown in a plant culture medium ([33]). Next, plantlets with newly formed roots were transferred to glass tubes (18 by 150 mm) containing 10 ml of medium supplemented with either 50 μM compound (diluted in DMSO; final DMSO concentration, 0.1%) or only 0.1% DMSO as a control. For plant experiments in soil, plantlets were transferred to pots (6 by 6 by 10 cm) filled with a mixture of sand, humus, and washed soil. After 1 week, plants were treated by foliar spraying using either individual compounds at a single concentration (10 μM) (treatment) or water (control/mock) twice a week for 1 month. All plants were grown at 22°C with 60% humidity and a 16-h light/8-h dark photoperiod for 28 days in culture medium and for 41 days in soil. The Finnish National Plant Phenotyping Infrastructure (NaPPI) was used to monitor plant viral disease symptoms as described in our previous study ([33]). Four compounds were tested with the phenotyping platform in two independent batches, each of which included five biological replicates.
(§4) Leaf samples were collected from plants grown in culture medium or soil for 28 or 41 days, respectively, and frozen in liquid nitrogen. Total RNA was extracted using the Spectrum plant total RNA kit (Sigma-Aldrich). First-strand cDNA was synthesized using the Transcriptor first-strand cDNA synthesis kit (Roche, Basel, Switzerland). […] All RT-qPCR experiments were conducted in triplicate on three and five biological replicates from plants grown in culture medium and soil, respectively. The primer list can be found in our previous study ([33]).
as §1

SPCSV [3] = assay: Virus accumulation (RT-qPCR of coat protein RNA) in coinfected sweetpotato plants grown in culture medium: SPCSV; format: in vivo, Sweet potato chlorotic stunt virus; settings: for SPCSV_FC (fold change of viral accumulation): 50 μM in culture medium, 28 days, relative to DMSO control
Procedure: as §2, §3, §4, §1

CSR3 = molecular target: T1, CSR3 (Sweet potato chlorotic stunt virus, UniProt Q8JJW8); assay: Binding affinity assay using MST; settings: for Kd: MST binding affinity to CSR3; for Kd / Binding (Yes/No) / Response Amplitude: Table S4; for Binding (Yes/No): MST binding call; for Response Amplitude: MST response amplitude
T1 sequence (Q8JJW8 1-228): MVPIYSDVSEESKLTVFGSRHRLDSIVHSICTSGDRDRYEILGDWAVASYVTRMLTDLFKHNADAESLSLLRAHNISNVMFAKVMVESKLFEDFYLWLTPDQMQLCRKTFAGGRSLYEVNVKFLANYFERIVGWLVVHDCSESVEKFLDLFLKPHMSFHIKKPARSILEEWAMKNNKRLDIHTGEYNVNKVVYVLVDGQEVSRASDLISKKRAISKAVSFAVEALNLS
Procedure: Binding affinity assays were first carried out with the 99 commercial compounds using the MST method.
The labeled-protein solution containing 500 nM proteins and 40 nM dye was prepared in PBS buffer with 2% dimethyl sulfoxide (DMSO) for the assay. The 12 concentrations for each compound were obtained by 2-fold serial dilutions (0.2 μM to 400 μM). […] Two independent experiments were carried out in premium coated capillaries (NanoTemper, Munich, Germany) using a Monolith NT.Automated instrument (NanoTemper) with the power set at high (80%), the light-emitting diode (LED) power (pico red) set at 5%, and the on-time set at 20 s. The dissociation constant (Kd) was determined using the MO.Affinity Analysis program (NanoTemper).

[4] = tested on: human enzymes or bacterial proteins; design: method as in earlier work; settings: ref PubChem https://pubchem.ncbi.nlm.nih.gov/compound/7114450#section=Biological-Test-Results; cited from earlier work
SPCSV [5] = settings: plants in soil, 10 μM foliar spray twice a week for 1 month, vs water-treated
Procedure: (§5) Compounds were administered by regular foliar spray over 1 month.
as §3
(§6) Leaf samples were collected from plants grown in culture medium or soil for 28 or 41 days, respectively, and frozen in liquid nitrogen. Total RNA was extracted using the Spectrum plant total RNA kit (Sigma-Aldrich). First-strand cDNA was synthesized using the Transcriptor first-strand cDNA synthesis kit (Roche, Basel, Switzerland). Gene expression was measured in a final volume of 10 μl (containing 2 μl 10-fold-diluted cDNA, 5 μl SYBR green I master mix [Roche], and 2.5 μM primers) using the LightCycler 480 instrument II (Roche). All RT-qPCR experiments were conducted in triplicate on three and five biological replicates from plants grown in culture medium and soil, respectively. The primer list can be found in our previous study ([33]).
as §1

SPFMV [6] = settings: plants in soil, 10 μM foliar spray twice a week for 1 month, vs water-treated
Procedure: as §5, §3, §6, §1

[7] = repeat Comm 1 (commercial compounds), 1.25 nM to 50 μM, unit inferred, numbers match nM, read-out: IC50 Comm 1
[8] = repeat FIMM 2 (FIMM library compounds), 1.25 nM to 50 μM, unit inferred, numbers match nM, read-out: IC50 FIMM 2
[9] = kinetic-based HTS, Fig 5A summary
[10] = read-out: IC50 Comm 1, repeat Comm 1 (commercial compounds), 1.25 nM to 50 μM, unit inferred, numbers match nM
[11] = plants in culture medium, 50 μM

Compound | Toxicity (sweetpotato plants) | DSS Comm 1 [1] | DSS FIMM1 [1] | DSS FIMM 2 [1] | IC50 [1, 7] | IC50 [1, 8] | SPFMV_FC (fold change of viral accumulation) (SPFMV [2]) | SPCSV_FC (fold change of viral accumulation) (SPCSV [3]) | Binding (Yes/No) (CSR3) | Response Amplitude (CSR3) | DSS [1, 9] | IC50 [1, 9] | IC50 [1, 10] | SPFMV accumulation reduced (SPFMV [2]; [11]) | SPCSV accumulation reduced (SPCSV [3]; [11]) | further results
CCn1c(S)nnc1CCNC(=O)c1cccs1 [FIMM099662] | no | 6 | 11.7 | 10.2 | 11400 nM | 3810 nM | 0.9387 | 0.5483 | Yes | 21 | – | – | – | – | – | IC50 ([1]; repeat FIMM 1 (FIMM library compounds), 1.25 nM to 50 μM, unit inferred, numbers match nM (cf. Fig 5A), read-out: IC50 FIMM1): 3070 nM; Kd (CSR3; read-out: Kd): 1.78 µM
CC(C)(C)C1CCc2c(sc(NC(=O)C3CC=CCC3C(=O)O)c2C(N)=O)C1 (stereo not drawn) [FIMM104970] | – | 2.4 | 0 | 2.1 | 3620 nM | – | – | – | No | 2.23 | – | – | – | – | – | –
CN1CCc2cccc3c2[C@H]1Cc1ccc(O)c(O)c1-3 [FIMM000096, reference compound] | – | 12.7 | 12.7 | 12.8 | – | 2880 nM | – | – | Yes | 11808 | 12.7 | ~2950 nM | 2950 nM | ~2 fold | ~4 fold | Comments (CSR3; MST behaviour of compound (V-shape response, fluorescence quenching, interference, aggregator)): Fluorescence quenching; Kd (CSR3): 0.69 µM
O=C(O)c1ccc2c(c1)C1C=CCC1C(c1ccccc1)N2 (stereo not drawn) [FIMM005536] | no | 12.4 | 12.5 | 12.1 | – | – | 0.2931 | 0.1274 | No | 0 | 12.5 | ~2740 nM | 2880 nM | ~4 fold | approximately 8 fold | IC50 ([1]; read-out: IC50 FIMM1, repeat FIMM 1 (FIMM library compounds), 1.25 nM to 50 μM, unit inferred, numbers match nM (cf. Fig 5A)): 2750 nM; IC50 ([1]; read-out: IC50 FIMM 2, repeat FIMM 2 (FIMM library compounds), 1.25 nM to 50 μM, unit inferred, numbers match nM): 2930 nM; activity in inhibitor screens for human enzymes or bacterial proteins [4]: inactive; viral titer SPFMV (log2 fold change relative to controls) (SPFMV [2]; [11]): −1.77; viral titer SPCSV (log2 fold change relative to controls) (SPCSV [3]; [11]): −2.97; log2 fold change in coat protein expression of SPCSV (SPCSV [5]): −1.67; log2 fold change in coat protein expression of SPFMV (SPFMV [6]): −1.36
